Assay results taken from patent US10159268B2, “Reduced sodium food products” (GENERAL MILLS, INC., priority 2013, dated 2018).

Experiments:
[1] = Na-solution DAP test: trained panel rates saltiness of compounds in sodium solution; type: in vivo; design: key: DAP score; >3.1 indicates saltiness or salt enhancement; conditions: single compound in sodium solution; best DAP score of tested concentrations 0.1, 1 and 10 ppm; DAP score greater than 3.1 indicates saltiness or salt enhancement
Method: (§1) Briefly, each individual tested compound was placed in water and in sodium solution to test saltiness and saltiness enhancement potential. Tests in water were executed in a compound concentration of 10 ppm. Tests in sodium solution were executed in compound concentrations of 0.1, 1 and 10 ppm. Two control sodium solutions with known organoleptic salt intensities were provided as references for each test. The test for individual compounds was also conducted using simple broth instead of sodium solution. A number of compound combinations identified from the Na-solution DAP test were used for the broth DAP test. Tests were executed with a trained panel of 9-12 assessors. For Na-solution DAP tests, a DAP score of greater than 3.1 indicates saltiness or salt enhancement. The DAP score can be correlated with a sodium reduction potential by subtracting 3.1 from the DAP score. […] For broth DAP tests, a DAP score of greater than 7.6 indicates saltiness or salt enhancement. The DAP score can be correlated with a sodium reduction potential by subtracting 7.6 from the DAP score.

[2] = Broth DAP test: trained panel rates saltiness of compounds in simple broth; type: in vivo; design: key: DAP score; >7.6 indicates saltiness or salt enhancement in broth; conditions: single compound in simple broth; best DAP score of tested concentrations 0.1, 1 and 10 ppm; DAP score greater than 7.6 indicates saltiness or salt enhancement
Method: as §1

SMILES: C[C@]12CC[C@H](O)C[C@H]1CC[C@@H]1[C@@H]2CC[C@]2(C)[C@@H](C3=CC(=O)OC3)CC[C@]12O [Compound 73, Digitoxigenin]
- DAP in Na-Sol. [1]: 3.5
- DAP in Broth [2]: 8.0

SMILES: C/C=C(\C)C(=O)O[C@H]1C[C@@H](OC(C)=O)[C@@]2(C)CO[C@@H]3C2[C@@]1(C)[C@@H](CC(=O)OC)[C@]1(C)C2=C(C)[C@H](c4ccoc4)C[C@H]2O[C@H]31 (some centres unmarked) [Compound 58, Salannin]
- DAP in Na-Sol. [1]: 3.3
- DAP in Broth [2]: 8.0

SMILES: C/C=C(\C)C(=O)O[C@H]1[C@H](O)[C@]2(CO)[C@H](O)C[C@]3(C)C(=CCC4[C@@]5(C)CC[C@H](O[C@@H]6O[C@H](C(=O)O)C(O[C@@H]7O[C@H](CO)[C@@H](O)[C@H](O)[C@H]7O)[C@H](O)[C@H]6O[C@@H]6O[C@H](CO)[C@@H](O)[C@H](O)[C@H]6O)[C@](C)(CO)C5CC[C@]43C)[C@@H]2CC1(C)C (some centres unmarked) [Compound 34, Aesculioside A]
- DAP in Na-Sol. [1]: 3.9
- DAP in Broth [2]: 7.7

SMILES: COc1c2ccoc2c(OCC=C(C)C)c2oc(=O)ccc12 [Compound 65, Phellopterin]
- DAP in Na-Sol. [1]: 3.3
- DAP in Broth [2]: 7.9

SMILES: CC(C)(O)[C@@H](O)COc1c2ccoc2cc2oc(=O)ccc12 [Compound 63, Prangol]
- DAP in Na-Sol. [1]: 3.5
- DAP in Broth [2]: 8.0

SMILES: COc1cc(C[C@@H](CO)[C@H](CO)Cc2ccc(O[C@@H]3O[C@H](CO)[C@@H](O)[C@H](O)[C@H]3O)c(OC)c2)ccc1O [Compound 48, Secoisolariciresinol; Secoisolariciresin-4-yl b-D-glucopyranoside]
- DAP in Na-Sol. [1]: 3.7
- DAP in Broth [2]: 7.8

SMILES: COc1cc2c(c(OC)c1OC)-c1c(cc(OC)c(OC)c1OC)C[C@H](C)[C@H](C)C2 [Compound 45, Schisandrin A, Deoxyschizandrin]
- DAP in Na-Sol. [1]: 3.5
- DAP in Broth [2]: 8.2

SMILES: COC1CC(OC2CCC3(C=O)C(CCC4C3CCC3(C)C(C5=CC(=O)OC5)CCC43O)C2)OC(C)C1OC1OC(CO)C(O)C(O)C1O (centres unmarked) [Compound 76, Apobioside]
- DAP in Na-Sol. [1]: 3.2
- DAP in Broth [2]: 8.0

SMILES: CCC(O)CC(=O)CCc1ccccc1 (centres unmarked) [Compound 12, a 1-Ph-5-OH-3-heptanone]
- DAP in Na-Sol. [1]: 4
- DAP in Broth [2]: 7.6

SMILES: O=C(O)/C=C/c1ccc(O)c2c1C(C(=O)OC(Cc1ccc(O)c(O)c1)C(=O)O)C(c1ccc(O)c(O)c1)O2 (centres unmarked) [Compound 40, a 3-benzofurancarboxylic ester]
- DAP in Na-Sol. [1]: 3.5
- DAP in Broth [2]: 7.8

SMILES: CC(C)=CCOc1c2occc2cc2ccc(=O)oc12 [Compound 64, Imperatorin]
- DAP in Na-Sol. [1]: 3.7
- DAP in Broth [2]: 7.8

SMILES: CC1CCC2(OC1)OC1CC3C4CCC5CC(OC6OC(CO)C(OC7OC(CO)C(O)C(OC8OC(CO)C(O)C(OC9OCC(O)C(O)C9O)C8O)C7O)C(OC7OCC(O)C(O)C7O)C6O)CCC5(C)C4CC(=O)C3(C)C1C2C (centres unmarked) [Compound 37]
- DAP in Na-Sol. [1]: 3.7
- DAP in Broth [2]: 8.1

SMILES: CC(=O)OC1CCC2(C)C(COc3ccc4ccc(=O)oc4c3)C(C)(O)CCC2C1(C)C (centres unmarked) [Compound 66, terpenoid coumarins]
- DAP in Na-Sol. [1]: 3.2
- DAP in Broth [2]: 7.8

SMILES: COc1cc2c(c(OC)c1OC)-c1c(cc3c(c1OC)OCO3)C[C@H](C)[C@@](C)(O)C2 [Compound 44, Schizandrol B; Gomisin A]
- DAP in Na-Sol. [1]: 3.8
- DAP in Broth [2]: 8.6

SMILES: C[C@H]1[C@H](C)CC[C@]2(C(=O)O)CC[C@]3(C)C(=CC[C@@H]4[C@@]5(C)CC[C@H](O)C(C)(C)[C@@H]5CC[C@]43C)[C@H]12 [Compound 43, Ursolic acid]
- DAP in Na-Sol. [1]: 3.7
- DAP in Broth [2]: 8.0

SMILES: COc1cc2c(c(OC)c1OC)-c1c(cc3c(c1OC)OCO3)CC(C)C(C)C2 (centres unmarked) [Compound 46, Schizandrin B]
- DAP in Na-Sol. [1]: 3.6
- DAP in Broth [2]: 7.8

SMILES: CCCC(=O)c1c(OC)cc(OC)c(CCO)c1O [Compound 54]
- DAP in Na-Sol. [1]: 3.4
- DAP in Broth [2]: 8.1

SMILES: CC1(C)CC[C@]2(C(=O)O)CC[C@]3(C)C(=CCC4[C@@]5(C)C[C@@H](O)[C@H](O)C(C)(C)C5CC[C@]43C)C2C1 (some centres unmarked) [Compound 42, Maslinic acid, Crategolic acid]
- DAP in Na-Sol. [1]: 3.1
- DAP in Broth [2]: 8.1

SMILES: O=C(/C=C/C=C/c1ccc2c(c1)OCO2)N1CCCCC1 [Compound 18, Piperine]
- DAP in Na-Sol. [1]: 3.8
- DAP in Broth [2]: 8.1

SMILES: C=CCCCCCCCCCCCC(CC(O)COC(C)=O)OC(C)=O (centres unmarked) [Compound 83, 16-Heptadecene-1,2,4-triol, 1,4-diacetate]
- DAP in Na-Sol. [1]: 4.2
- DAP in Broth [2]: 8.1

SMILES: CCCCCCCCCCC[C@H](O)CC(=O)CCc1ccc(O)c(OC)c1 [Compound 1, 12-Gingerol]
- DAP in Na-Sol. [1]: 3.6
- DAP in Broth [2]: 7.8

SMILES: C=C[C@@]1(C)CC(=O)C2[C@]3(C)C(C[C@@H](OC(C)=O)[C@@]2(O)C1=O)C(C)(C)[C@H](O)[C@H](OC(C)=O)[C@@H]3OC(=O)c1ccccc1 (some centres unmarked) [Compound 33, Orthosiphol M]
- DAP in Na-Sol. [1]: 3.4
- DAP in Broth [2]: 7.7
